ChEMBL document CHEMBL1201862, “PubChem BioAssay data set” (2004)
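How tested: cells in 96-well plates exposed to compound for 48 hours at five concentrations. GI50 = concentration required for 50% inhibition of growth.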 The source made the active and inactive calls. Rule as the data show it: active = GI50 up to about 1.1 µM and inactive = higher.

Legend:
Test in all cases: growth of human tumour cells (NCI), 48 h
LOX IMVI = system: LOX IMVI
SK-OV-3 = system: SK-OV-3
MDA-MB-231 = system: MDA-MB-231
UO-31 = system: UO-31
SN12C = system: SN12C
MCF7 = system: MCF7
SW-620 = system: SW-620
KM12 = system: KM12
OVCAR-8 = system: OVCAR-8
HOP-62 = system: HOP-62
DU-145 = system: DU-145
IGROV-1 = system: IGROV-1
ACHN = system: ACHN
NCI-H522 = system: NCI-H522
MOLT-4 = system: MOLT-4
PC-3 = system: PC-3
NCI-H226 = system: NCI-H226
SK-MEL-5 = system: SK-MEL-5
U-251 = system: U-251
HL-60 = system: HL-60

Measured: GI50

CCOC(=O)/C=C(/C(=O)OCC)n1ccc(=O)n(Cc2cn(CCCCOC(C)=O)nn2)c1=O
inactive: LOX IMVI > 100 µM | SK-OV-3 > 100 µM | MDA-MB-231 > 100 µM | UO-31 > 100 µM | SN12C > 100 µM | MCF7 60.3 µM | SW-620 32.7 µM | KM12 > 100 µM | OVCAR-8 > 100 µM | HOP-62 > 100 µM | DU-145 > 100 µM | IGROV-1 > 100 µM | ACHN 40.3 µM | NCI-H522 13.6 µM | MOLT-4 50.2 µM | PC-3 > 100 µM | NCI-H226 32.9 µM | SK-MEL-5 > 100 µM | U-251 > 100 µM

COc1ccc(-n2c3c(c4cc(O)ccc42)Cc2ccccc2C3=O)cc1
inactive: LOX IMVI 35.9 µM | HL-60 > 100 µM | SK-OV-3 16 µM | MDA-MB-231 20.1 µM | UO-31 > 100 µM | SN12C 57.3 µM | MCF7 9.16 µM | SW-620 57 µM | KM12 28.8 µM | OVCAR-8 48 µM | HOP-62 42.7 µM | DU-145 > 100 µM | IGROV-1 29.7 µM | MOLT-4 11.5 µM | PC-3 2.2 µM | NCI-H226 63.7 µM | SK-MEL-5 39.2 µM | U-251 45.2 µM

CCN(CC)CCn1ncc2c(N)ncnc21
inactive: LOX IMVI > 100 µM | SK-OV-3 > 100 µM | MDA-MB-231 > 100 µM | UO-31 > 100 µM | SN12C > 100 µM | MCF7 > 100 µM | SW-620 > 100 µM | KM12 > 100 µM | OVCAR-8 > 100 µM | HOP-62 > 100 µM | DU-145 > 100 µM | IGROV-1 > 100 µM | ACHN > 100 µM | NCI-H522 > 100 µM | MOLT-4 > 100 µM | PC-3 > 100 µM | NCI-H226 > 100 µM | SK-MEL-5 > 100 µM | U-251 > 100 µM

CCOC(=O)Nc1nn[nH]c1Cl
inactive: LOX IMVI > 100 µM | SK-OV-3 > 100 µM | MDA-MB-231 > 100 µM | UO-31 > 100 µM | SN12C > 100 µM | MCF7 > 100 µM | SW-620 > 100 µM | KM12 63 µM | OVCAR-8 > 100 µM | HOP-62 > 100 µM | DU-145 > 100 µM | IGROV-1 > 100 µM | NCI-H522 > 100 µM | MOLT-4 > 100 µM | PC-3 > 100 µM | NCI-H226 > 100 µM | SK-MEL-5 > 100 µM | U-251 > 100 µM

N#Cc1nc(-c2ccsc2)oc1N
inactive: LOX IMVI > 100 µM | HL-60 > 100 µM | SK-OV-3 > 100 µM | MDA-MB-231 > 100 µM | UO-31 64.1 µM | SN12C > 100 µM | MCF7 > 100 µM | SW-620 > 100 µM | KM12 > 100 µM | OVCAR-8 > 100 µM | HOP-62 > 100 µM | DU-145 > 100 µM | IGROV-1 71.8 µM | ACHN > 100 µM | MOLT-4 > 100 µM | PC-3 > 100 µM | SK-MEL-5 > 100 µM | U-251 > 100 µM

N#CC(C#N)=C1SC(=N\c2ccccc2)/C(=N/c2ccccc2)N1c1ccccc1
inactive: LOX IMVI 10.7 µM | SK-OV-3 > 100 µM | MDA-MB-231 7.8 µM | UO-31 12.7 µM | SN12C 23.9 µM | MCF7 13.4 µM | SW-620 3.28 µM | KM12 > 38.5 µM | OVCAR-8 22.6 µM | HOP-62 27.7 µM | DU-145 42.9 µM | IGROV-1 13.9 µM | ACHN 20 µM | NCI-H522 1.94 µM | MOLT-4 2.24 µM | PC-3 7.6 µM | NCI-H226 23.4 µM | SK-MEL-5 14.3 µM | U-251 15.6 µM

Clc1nc(NCCc2ccccc2)c2ncn(-c3ccccc3)c2n1
inactive: LOX IMVI 21.3 µM | SK-OV-3 20.4 µM | MDA-MB-231 21.8 µM | UO-31 12.9 µM | SN12C 27.5 µM | MCF7 24.9 µM | SW-620 29.3 µM | KM12 16.8 µM | OVCAR-8 28.4 µM | HOP-62 20.6 µM | DU-145 25.2 µM | IGROV-1 40.8 µM | ACHN 29.4 µM | NCI-H522 16 µM | MOLT-4 22 µM | PC-3 16.1 µM | NCI-H226 24.1 µM | SK-MEL-5 18.5 µM | U-251 16.2 µM

CCN(CC)CCCC(C)NC(=O)c1cc(-c2nccn2C)nc2ccc(C)cc12 (configuration not stated)
inactive: LOX IMVI > 100 µM | HL-60 > 100 µM | MDA-MB-231 > 100 µM | UO-31 > 100 µM | SN12C > 10 µM | MCF7 64.7 µM | SW-620 > 100 µM | KM12 > 100 µM | OVCAR-8 > 100 µM | HOP-62 > 100 µM | DU-145 > 100 µM | IGROV-1 > 100 µM | ACHN > 100 µM | MOLT-4 > 10 µM | PC-3 > 100 µM | NCI-H226 > 100 µM | SK-MEL-5 > 100 µM | U-251 > 100 µM

CC1=C(C(=O)OC(C)(C)C)C(c2ccc([N+](=O)[O-])cc2)C(C(=O)OC(C)(C)C)=C(C)N1
inactive: LOX IMVI 18.5 µM | SK-OV-3 32.4 µM | MDA-MB-231 22.2 µM | UO-31 19.4 µM | SN12C 19.8 µM | MCF7 16.6 µM | SW-620 26.9 µM | KM12 20.7 µM | OVCAR-8 20.4 µM | HOP-62 23.4 µM | DU-145 26.9 µM | IGROV-1 16.8 µM | ACHN 21.4 µM | NCI-H522 18.5 µM | MOLT-4 16.9 µM | PC-3 26.7 µM | NCI-H226 21.3 µM | SK-MEL-5 18.2 µM | U-251 21.1 µM

Cc1cc2c(c(C(=O)NCC(=O)O)c1)Oc1c(cc(C)cc1C(=O)NCC(=O)O)S2
inactive: LOX IMVI > 100 µM | SK-OV-3 > 100 µM | MDA-MB-231 > 100 µM | SN12C > 100 µM | MCF7 > 100 µM | SW-620 > 100 µM | KM12 > 100 µM | OVCAR-8 > 100 µM | HOP-62 > 100 µM | DU-145 > 100 µM | IGROV-1 > 100 µM | ACHN > 100 µM | NCI-H522 > 100 µM | MOLT-4 > 100 µM | PC-3 > 100 µM | NCI-H226 > 100 µM | U-251 > 100 µM

O=C1Cc2c([nH]c3ccc(C(=O)O)cc23)-c2ccccc2N1
inactive: LOX IMVI > 100 µM | HL-60 37.5 µM | SK-OV-3 > 100 µM | MDA-MB-231 > 100 µM | UO-31 > 100 µM | SN12C > 100 µM | MCF7 > 100 µM | SW-620 > 100 µM | KM12 > 100 µM | OVCAR-8 > 100 µM | HOP-62 > 100 µM | DU-145 > 100 µM | IGROV-1 > 100 µM | ACHN > 100 µM | MOLT-4 > 100 µM | PC-3 > 100 µM | NCI-H226 > 100 µM | U-251 > 100 µM
